Patent US12540128B2, “Substituted pyridazinones as herbicides” (SYNGENTA CROP PROTECTION AG, priority 2019, dated 2026)

Key:
Assay type in all cases: in vivo
Settings in all cases: 250 g/ha, after 13 days
[1] = system: Amaranthus retoflexus (AMARE); assay: B2 Post-Emergence Efficacy Test 2
Method: (§1) Seeds of a variety of test species are sown in standard soil in pots:— Amaranthus retoflexus (AMARE), Setaria faberi (SETFA), Echinochloa crus-galli (ECHCG), Ipomoea hederacea (IPOHE), Zea Mays (ZEAMX), Abutilon theophrasti (ABUTH). After 8 days cultivation (post-emergence) under controlled conditions in a glasshouse (at 24/16° C., day/night; 14 hours light; 65% humidity), the plants are sprayed with an aqueous spray solution derived from the formulation of the technical active ingredient in acetone/water (50:50) solution containing 0.5% Tween 20 (polyoxyethylene sorbitan monolaurate, CAS RN 9005-64-5). Compounds are applied at 250 g/ha. The test plants are then grown in a glasshouse under controlled conditions in a glasshouse (at 24/16° C., day/night; 14 hours light; 65% humidity) and watered twice daily. After 13 days, the test is evaluated for the percentage damage caused to the plant. The biological activities are assessed on a five point scale (5=80-100%; 4=60-79%; 3=40-59%; 2=20-39%; 1=0-19%). A blank value in the table is indicative that the compound was not tested on that species.

[2] = system: Echinochloa crus-galli (ECHCG); assay: B2 Post-Emergence Efficacy Test 2
Method: as §1

[3] = system: Ipomoea hederacea (IPOHE); assay: B2 Post-Emergence Efficacy Test 2
Method: as §1

[4] = system: Zea Mays (ZEAMX); assay: B2 Post-Emergence Efficacy Test 2
Method: as §1

[5] = system: Abutilon theophrasti (ABUTH); assay: B2 Post-Emergence Efficacy Test 2
Method: as §1

[6] = system: Setaria faberi (SETFA); assay: B2 Post-Emergence Efficacy Test 2
Method: as §1

[7] = system: Amaranthus retoflexus (AMARE); assay: B4 Pre-Emergence Efficacy Test 2
Method: (§2) Seeds of a variety of test species were sown in standard soil in pots: Amaranthus retoflexus (AMARE), Setaria faberi (SETFA), Echinochloa crus-galli (ECHCG), Ipomoea hederacea (IPOHE), Zea Mays (ZEAMX), Abutilon theophrasti (ABUTH). After cultivation for one day (pre-emergence) under controlled conditions in a glasshouse (at 24/16° C., day/night; 14 hours light; 65% humidity), the plants were sprayed with an aqueous spray solution derived from the formulation of the technical active ingredient in acetone/water (50:50) solution containing 0.5% Tween 20 (polyoxyethelyene sorbitan monolaurate, CAS RN 9005-64-5). Compounds are applied at 250 g/ha. The test plants were then grown in a glasshouse under controlled conditions (at 24/16° C., day/night; 14 hours light; 65% humidity) and watered twice daily. After 13 days, the test is evaluated for the percentage damage caused to the plant. The biological activities are assessed on a five point scale (5=80-100%; 4=60-79%; 3=40-59%; 2=20-39%; 1=0-19%). A blank value in the table is indicative that the compound was not tested on that species.

[8] = system: Echinochloa crus-galli (ECHCG); assay: B4 Pre-Emergence Efficacy Test 2
Method: as §2

[9] = system: Ipomoea hederacea (IPOHE); assay: B4 Pre-Emergence Efficacy Test 2
Method: as §2

[10] = system: Zea Mays (ZEAMX); assay: B4 Pre-Emergence Efficacy Test 2
Method: as §2

[11] = system: Abutilon theophrasti (ABUTH); assay: B4 Pre-Emergence Efficacy Test 2
Method: as §2

[12] = system: Setaria faberi (SETFA); assay: B4 Pre-Emergence Efficacy Test 2
Method: as §2

| SMILES | percentage damage caused to the plant, five point scale, AMARE [1] | percentage damage caused to the plant, five point scale, ECHCG [2] | percentage damage caused to the plant, five point scale, IPOHE [3] | percentage damage caused to the plant, five point scale, ZEAMX [4] | percentage damage caused to the plant, five point scale, ABUTH [5] | percentage damage caused to the plant, five point scale, SETFA [6] | percentage damage caused to the plant, five point scale, AMARE [7] | percentage damage caused to the plant, five point scale, ECHCG [8] | percentage damage caused to the plant, five point scale, IPOHE [9] | percentage damage caused to the plant, five point scale, ZEAMX [10] | percentage damage caused to the plant, five point scale, ABUTH [11] | percentage damage caused to the plant, five point scale, SETFA [12] |
| --- | --- | --- | --- | --- | --- | --- | --- | --- | --- | --- | --- | --- |
| Cc1nn(C)c(=O)c(-c2c(F)ccc(Cl)c2CCc2cccc3ccccc23)c1O [Compound 1.044] | 3 (3=40-59%) | 0 | 4 (4=60-79%) | 1 (1=0-19%) | 3 (3=40-59%) | 0 | 2 (2=20-39%) | 0 | 3 (3=40-59%) | 1 (1=0-19%) | 3 (3=40-59%) | 0 |
| Cc1nn(C)c(=O)c(-c2c(F)ccc(Cl)c2CCc2ccc3ccccc3c2)c1O [Compound 1.053] | 4 (4=60-79%) | 3 (3=40-59%) | 4 (4=60-79%) | 4 (4=60-79%) | 3 (3=40-59%) | 4 (4=60-79%) | 4 (4=60-79%) | 2 (2=20-39%) | 1 (1=0-19%) | 1 (1=0-19%) | 2 (2=20-39%) | 2 (2=20-39%) |
| Cc1nn(C)c(=O)c(-c2c(F)ccc(Cl)c2CCc2ccc3c(c2)OC(C)(C)C3)c1O [Compound 1.340] | 5 (5=80-100%) | 5 (5=80-100%) | 4 (4=60-79%) | 5 (5=80-100%) | 5 (5=80-100%) | 5 (5=80-100%) | 5 (5=80-100%) | 5 (5=80-100%) | 5 (5=80-100%) | 3 (3=40-59%) | 5 (5=80-100%) | 5 (5=80-100%) |
| Cc1nc2ccc(CCc3c(Cl)ccc(F)c3-c3c(O)c(C)nn(C)c3=O)cc2o1 [Compound 1.341] | 5 (5=80-100%) | 5 (5=80-100%) | 5 (5=80-100%) | 4 (4=60-79%) | 5 (5=80-100%) | 4 (4=60-79%) | 5 (5=80-100%) | 5 (5=80-100%) | 5 (5=80-100%) | 4 (4=60-79%) | 5 (5=80-100%) | 5 (5=80-100%) |
| Cc1nn(C)c(=O)c(-c2c(F)ccc(Cl)c2CCc2ccc3c(c2)OC(F)(F)O3)c1O [Compound 1.342] | 5 (5=80-100%) | 5 (5=80-100%) | 5 (5=80-100%) | 4 (4=60-79%) | 5 (5=80-100%) | 4 (4=60-79%) | 5 (5=80-100%) | 5 (5=80-100%) |  | 1 (1=0-19%) | 4 (4=60-79%) | 5 (5=80-100%) |
| Cc1nn(C)c(=O)c(-c2c(F)ccc(Cl)c2CCc2nn(C)c3ccccc23)c1O [Compound 1.344] | 3 (3=40-59%) | 2 (2=20-39%) | 3 (3=40-59%) | 1 (1=0-19%) | 4 (4=60-79%) |  | 3 (3=40-59%) | 2 (2=20-39%) | 3 (3=40-59%) | 0 | 4 (4=60-79%) | 2 (2=20-39%) |
| Cc1nn(C)c(=O)c(-c2c(F)ccc(Cl)c2CCc2cnc3c(ccn3C)c2)c1O [Compound 1.345] | 4 (4=60-79%) | 3 (3=40-59%) | 4 (4=60-79%) | 2 (2=20-39%) | 4 (4=60-79%) | 4 (4=60-79%) | 5 (5=80-100%) | 2 (2=20-39%) | 5 (5=80-100%) | 1 (1=0-19%) | 4 (4=60-79%) | 5 (5=80-100%) |
| Cc1nn(C)c(=O)c(-c2c(F)ccc(Cl)c2CCc2ccc3occc3c2)c1O [Compound 1.346] | 2 (2=20-39%) | 4 (4=60-79%) | 3 (3=40-59%) | 2 (2=20-39%) | 4 (4=60-79%) | 0 | 3 (3=40-59%) | 0 | 3 (3=40-59%) | 1 (1=0-19%) | 4 (4=60-79%) | 0 |
| Cc1nn(C)c(=O)c(-c2c(F)ccc(Cl)c2CCc2ccc3ccsc3c2)c1O [Compound 1.347] | 4 (4=60-79%) | 4 (4=60-79%) | 4 (4=60-79%) | 4 (4=60-79%) | 4 (4=60-79%) | 4 (4=60-79%) | 5 (5=80-100%) | 2 (2=20-39%) | 5 (5=80-100%) | 3 (3=40-59%) | 5 (5=80-100%) | 3 (3=40-59%) |
| Cc1nn(C)c(=O)c(-c2c(F)ccc(Cl)c2CCc2ccc3sccc3c2)c1O [Compound 1.348] | 4 (4=60-79%) | 4 (4=60-79%) | 4 (4=60-79%) | 4 (4=60-79%) | 3 (3=40-59%) | 4 (4=60-79%) | 5 (5=80-100%) | 4 (4=60-79%) | 5 (5=80-100%) | 1 (1=0-19%) | 3 (3=40-59%) | 3 (3=40-59%) |
